Test results from PubChem BioAssay (NCI).
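96-well plates; 48 h exposure; 5 concentrations. Endpoints by linear interpolation between flanking doses. Not reached: highest tested concentration assigned. TGI marks complete inhibition of growth.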

Columns and labels:
Assay in all cases: NCI-60 cell line screen, 48 h
[1] = tested on: HCC-2998 colon
[2] = tested on: PC-3 prostate
[3] = tested on: ACHN renal
[4] = tested on: BT-549 breast
[5] = tested on: RPMI-8226 leukemia
[6] = tested on: OVCAR-5 ovarian
[7] = tested on: SK-MEL-5 melanoma
[8] = tested on: SF-295 CNS
[9] = tested on: U251 CNS
[10] = tested on: A549 NSCLC
[11] = tested on: SNB-19 CNS
[12] = tested on: MDA-MB-435
[13] = tested on: UACC-62 melanoma
[14] = tested on: SNB-75 CNS
[15] = tested on: HOP-92 NSCLC
[16] = tested on: COLO 205 colon
[17] = tested on: HL-60(TB) leukemia
[18] = tested on: NCI-H522 lung
[19] = tested on: MALME-3M melanoma
[20] = tested on: MDA-MB-231 breast

Compound	TGI [1]	TGI [2]	TGI [3]	TGI [4]	TGI [5]	TGI [6]	TGI [7]	TGI [8]	TGI [9]	TGI [10]	TGI [11]	TGI [12]	TGI [13]	TGI [14]	TGI [15]	TGI [16]	TGI [17]	TGI [18]	TGI [19]	TGI [20]
N#C/C(C(=O)Nc1ccccc1)=C(/N)N1CCOCC1	> 100 µM	> 100 µM	> 100 µM	> 100 µM	> 100 µM	> 100 µM	> 100 µM	> 100 µM	> 100 µM	> 100 µM	> 100 µM	> 100 µM	> 100 µM	> 100 µM	> 100 µM	> 100 µM				
COc1cc(Nc2cnc3cc(F)c(F)cc3n2)cc(OC)c1OC		> 100 µM	> 100 µM	> 100 µM		> 100 µM	> 100 µM	> 100 µM	> 100 µM	> 100 µM	> 100 µM	> 100 µM	> 100 µM	> 100 µM	> 100 µM	> 100 µM	> 100 µM	> 100 µM	> 100 µM	
C[C@]12CC[C@H](O)CC1=CC[C@@H]1[C@@H]2CC[C@]2(C)C(=O)[C@@H](N3CCOCC3)C[C@@H]12	> 100 µM	> 100 µM	> 100 µM		> 100 µM	> 100 µM	> 100 µM	> 100 µM	> 100 µM	> 100 µM	> 100 µM	> 100 µM	> 100 µM	99.2 µM	> 100 µM	> 100 µM	> 100 µM	> 100 µM	> 100 µM	> 100 µM
CC(=O)Nc1ccc(C(=O)NN2C(=O)C(Cl)C2c2ccccc2)cc1 (centres undefined)			> 100 µM			> 100 µM	> 100 µM	> 100 µM	> 100 µM	> 100 µM	> 100 µM		> 100 µM	> 100 µM	> 100 µM	> 100 µM	> 100 µM	> 100 µM	> 100 µM	
O/N=C1/COC(C(F)(F)F)(C(F)(F)F)C1	> 100 µM	> 100 µM	> 100 µM		> 100 µM	> 100 µM	> 100 µM	> 100 µM	> 100 µM	> 100 µM	> 100 µM	> 100 µM	> 100 µM	> 100 µM	> 100 µM	> 100 µM		> 100 µM	> 100 µM	> 100 µM
COCCOCc1nc(C#N)c(N)o1	> 100 µM	> 100 µM	> 100 µM		> 100 µM	> 100 µM	> 100 µM	> 100 µM	> 100 µM	> 100 µM	> 100 µM	> 100 µM	> 100 µM	> 100 µM	> 100 µM	> 100 µM	> 100 µM		> 100 µM	> 100 µM
CC(=O)c1c2c(cc3c1CC1(Cc4ccccc4C1=O)C3)CCC2 (centres undefined)	> 100 µM	> 100 µM	> 100 µM		39.1 µM	> 100 µM	23 µM	> 100 µM	> 100 µM	> 100 µM	> 100 µM	64 µM		> 100 µM	49.5 µM	30.7 µM	33.7 µM	> 100 µM	51.5 µM	93.4 µM
COc1ccc(C(=O)Sc2c(-c3ccccc3)c(=O)n(-c3ccccc3)c(=S)n2-c2ccccc2)cc1	> 100 µM	> 100 µM	> 100 µM			> 100 µM		> 100 µM	> 100 µM	> 100 µM	> 100 µM	> 100 µM	> 100 µM	> 100 µM	71.2 µM	> 100 µM	> 100 µM	> 100 µM	> 100 µM	> 100 µM
COc1cc(C[S+]2CCCC2)c(SC)cc1C[S+]1CCCC1	> 100 µM		> 100 µM		> 100 µM	> 100 µM	> 100 µM	> 100 µM	> 100 µM	> 100 µM			> 100 µM	> 100 µM	> 100 µM	> 100 µM	> 100 µM	> 100 µM	> 100 µM	
COc1ccc(C2S/C(=C\c3ccccc3O)C(=O)N2NC(=O)Cc2ccccc2)cc1 (centres undefined)			> 100 µM		> 100 µM	> 100 µM	> 100 µM	> 100 µM	> 100 µM	> 100 µM			> 100 µM	> 100 µM	> 100 µM	> 100 µM	> 100 µM	> 100 µM	> 100 µM	
CC1=C(C#N)C(C#N)(C#N)C(NN(C)C)C1 (centres undefined)	32.1 µM	46.6 µM	34.6 µM		35.9 µM	47.4 µM	17.5 µM	79.1 µM	> 100 µM	> 100 µM		75 µM	61.6 µM	40.3 µM	30.8 µM	16.1 µM	> 100 µM	24.8 µM	98.2 µM	28.4 µM
C[C@]12C=CC(=O)C=C1CC[C@H]1[C@@H]3C[C@@H](O)[C@](O)(C(=O)CO)[C@@]3(C)C[C@H](O)[C@@]12F	> 100 µM		> 100 µM		> 100 µM	> 100 µM	> 100 µM	> 100 µM	> 100 µM	> 100 µM	> 100 µM		> 100 µM	> 100 µM	> 100 µM	> 100 µM	> 100 µM	> 100 µM	> 100 µM	
O=C(c1ccc(O)cc1)C1c2c3c(cc(O)c2C(c2ccc(O)cc2)C1c1cc(O)cc(O)c1)OC(c1ccc(O)cc1)C3c1cc2c(cc1O)OC(c1ccc(O)cc1)C2c1cc(O)cc(O)c1 (centres undefined)	> 12.5 µM		> 12.5 µM		> 12.5 µM	> 12.5 µM	> 12.5 µM		> 12.5 µM	> 12.5 µM	> 12.5 µM		> 12.5 µM	> 12.5 µM	> 12.5 µM	> 12.5 µM	> 12.5 µM	> 12.5 µM	> 12.5 µM	
CC(=O)NC1C(OCc2ccccc2)OC(CO)C(O)C1OC(C)C(=O)NC(C)C(=O)NC(CCC(=O)NCCCNc1c2ccccc2nc2cccc([N+](=O)[O-])c12)C(N)=O (centres undefined)	2.52 µM		6.9 µM		> 100 µM	8.02 µM	2.47 µM	35.2 µM	12.8 µM	11.6 µM	> 100 µM	2.65 µM	3.82 µM	9.92 µM	5.8 µM	2.34 µM	> 100 µM	4.05 µM	7.61 µM	3.26 µM
C=C1CC(c2ccc(OCCCN3C(=O)c4ccccc4C3=O)c(OC)c2)OC1=O (centres undefined)	27.7 µM	25.7 µM	18.7 µM		6.69 µM	31.9 µM	23.2 µM	26.3 µM	23.5 µM	27 µM	28 µM	11.7 µM	10.2 µM	8.06 µM	3.51 µM	5.33 µM	2.8 µM	1.54 µM	12.4 µM	30.5 µM
Cc1ccc(S(=O)(=O)N/N=C/C(=C/c2ccc(Cl)cc2)CC(/C=N/NS(=O)(=O)c2ccc(C)cc2)=C\c2ccc(Cl)cc2)cc1	8.98 µM	24 µM	19.1 µM		9.11 µM	35.5 µM	13.9 µM	55 µM	17.2 µM	> 100 µM	> 100 µM	14.2 µM	27.4 µM	60.1 µM	12.4 µM	16.9 µM	8.15 µM	16.1 µM	22 µM	24.8 µM
CCC(C)(C)/C(CC(O)(C(F)(F)F)C(F)(F)F)=N\O	> 100 µM	> 100 µM	> 100 µM		> 100 µM	> 100 µM	> 100 µM	> 100 µM	> 100 µM	> 100 µM	> 100 µM	> 100 µM	> 100 µM	> 100 µM	> 100 µM	> 100 µM	> 100 µM	> 100 µM	> 100 µM	> 100 µM
CNC(=S)N(C)C(=S)Nn1c(=O)c(C)nn(C)c1=S			> 100 µM		> 100 µM	> 100 µM	> 100 µM	> 100 µM	> 100 µM	> 100 µM	> 100 µM		> 100 µM	> 100 µM	> 100 µM	> 100 µM	> 100 µM	> 100 µM		
CCC1(CC)SCc2nc3ccccc3n21	> 100 µM	81.1 µM	> 100 µM		65.7 µM	> 100 µM	36.5 µM	> 100 µM	> 100 µM	> 100 µM	> 100 µM	68 µM	> 100 µM	51.8 µM	61.2 µM	40.2 µM	59.5 µM	94.4 µM	94.8 µM	90.5 µM
CC(=O)OCCn1cnc2nc(Nc3ccccc3)nc(Cl)c21	> 100 µM	> 100 µM	> 100 µM		> 100 µM	> 100 µM	> 100 µM	> 100 µM	> 100 µM	> 100 µM	> 100 µM	> 100 µM	> 100 µM		34.4 µM	88.1 µM	> 100 µM	> 100 µM	> 100 µM	> 100 µM
COC(C)(C)C1=CCC(C)CC1 (centres undefined)	> 100 µM	> 100 µM	> 100 µM	> 100 µM	> 100 µM	> 100 µM	> 100 µM	> 100 µM	> 100 µM	> 100 µM	> 100 µM	> 100 µM	> 100 µM	> 100 µM	> 100 µM	> 100 µM		> 100 µM	> 100 µM	
